Data: publication PMC10962542, “Inhibition of Aurora‐A/N‐Myc Protein–Protein Interaction Using Peptidomimetics: Understanding the Role of Peptide Cyclization” (Chembiochem, 2023)
Marks after values point to notes of the source that are not given here. *1 amine or outer side, *2 acyl side, *3 side chain or, on linkers, in order; H or OH if unused. Where a SMILES comes first, the peptide text is derived from it. Bridges are numbered along the chain shown (N, C = ends). Maleimide(3,4-diyl) = O=C1NC(=O)C([*:2])=C1[*:1]

Assays:
circular dichroism = assay: circular dichroism; set-up: unit not given here; conditions: 25 mM Tris, 150 mM NaCl, 5 mM MgCl2; pH 7.5; 5 °C; 30-120 uM
[1] = target: T1, N‐Myc/Aurora‐A interaction (Aurora‐A122‐403‐C290A/C393A) (Homo sapiens, UniProt O14965, C290A/C393A); assay: competition fluorescence anisotropy (FA) assay against fluorescein labelled N‐Myc61‐89; assay type: binding; conditions: SD; further: equilibrated 2 h at room temperature
T1 construct: Aurora‐A 122‐403‐C290A/C393A protein was produced as described previously; made in house
T1 sequence (O14965 122-403 C290A/C393A): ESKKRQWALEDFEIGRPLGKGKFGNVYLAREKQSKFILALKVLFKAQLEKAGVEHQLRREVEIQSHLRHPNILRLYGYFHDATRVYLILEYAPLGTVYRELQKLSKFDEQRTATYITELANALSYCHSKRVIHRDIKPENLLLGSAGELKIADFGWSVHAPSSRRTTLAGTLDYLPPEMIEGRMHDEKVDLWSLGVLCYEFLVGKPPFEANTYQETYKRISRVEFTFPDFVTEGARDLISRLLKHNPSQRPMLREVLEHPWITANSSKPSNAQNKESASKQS

[2] = circular dichroism (CD) spectroscopy; assay type: physicochemical; conditions: 150 mM NaCl, 5 mM MgCl2, pH 7.5, 5 °C, n=2, free‐thiol (red) samples with 5 mol equivalents TCEP; for MRE222 (mean residue ellipticity at 222 nm): 25 mM Tris, mean ± SD, SD; for % Helicity (estimated): from MRE222 by equation 7, 25 mM Tris
Outline: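 Peptides at 30–120 μM in 25 mM Tris, 150 mM NaCl, 5 mM MgCl2, pH 7.5 (plus 5 mol eq. TCEP for free sulfhydryl peptides) were scanned in duplicate at 5 °C from 290 to 180 nm, 1 mm pathlength. Buffer-subtracted ellipticity gave mean residue ellipticity, and % helicity was estimated from MRE at 222 nm.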

Compound | helicity (circular dichroism) | IC50 [1] [µM] | MRE222 (mean residue ellipticity at 222 nm) [2] | % Helicity (estimated) [2] [%]
CSCC[C@H](NC(=O)[C@H](CCC(=O)O)NC(=O)[C@@H](NC(=O)[C@@H](NC(=O)[C@H](Cc1c[nH]c2ccccc12)NC(=O)[C@H](CO)NC(=O)[C@@H]1CCCN1C(=O)[C@@H]1CCCN1C(=O)[C@H](CCC(=O)O)NC(C)=O)C(C)C)[C@@H](C)O)C(=O)N[C@@H](CC(C)C)C(=O)N[C@@H](CC(C)C)C(=O)N[C@@H](CCC(=O)O)C(=O)N[C@@H](CC(N)=O)C(=O)N[C@H]1CSSC[C@@H](C(=O)N2CCC[C@H]2C(=O)N[C@@H](C)C(=O)N[C@@H](CCC(=O)O)C(=O)N[C@@H](CCC(=O)O)C(N)=O)NC(=O)CNC(=O)[C@H](Cc2c[nH]c3ccccc23)NC(=O)[C@H](CC(C)C)NC1=O [N‐Myc73‐94‐E86C/S90C (ox)] (Ac-EPPSWVTEMLLENCLWGCPAEE-NH2; disulfide 14-18) | -7450 | 172 ± 23 | −7454±130 deg cm^−1 dmol^−1 res^−1 | 21±1
CSCC[C@H](NC(=O)[C@H](CCC(=O)O)NC(=O)[C@@H](NC(=O)[C@@H](NC(=O)[C@H](Cc1c[nH]c2ccccc12)NC(=O)[C@H](CO)NC(=O)[C@@H]1CCCN1C(=O)[C@@H]1CCCN1C(=O)[C@H](CO)NC(C)=O)C(C)C)[C@@H](C)O)C(=O)N[C@@H](CC(C)C)C(=O)N[C@@H](CC(C)C)C(=O)N[C@@H](CCC(=O)O)C(=O)N[C@@H](CC(N)=O)C(=O)N[C@@H](CCC(=O)O)C(=O)N[C@@H](CC(C)C)C(=O)N[C@@H](Cc1c[nH]c2ccccc12)C(=O)NCC(N)=O [N‐Myc73‐89‐E73S] | -5540 | 217 ± 13 | −5541±66 deg cm^−1 dmol^−1 res^−1 | 17±1
Ac-SWVTEMLLENELWG-NH2 [N‐Myc76‐89] | -4340 | 215 ± 11 | −4342±142 deg cm^−1 dmol^−1 res^−1 | 14±1
CSCC[C@H](NC(=O)[C@H](CCC(=O)O)NC(=O)[C@@H](NC(=O)[C@@H](NC(=O)[C@H](Cc1c[nH]c2ccccc12)NC(=O)[C@H](CO)NC(=O)[C@@H]1CCCN1C(=O)[C@@H]1CCCN1C(=O)[C@H](CCC(=O)O)NC(C)=O)C(C)C)[C@@H](C)O)C(=O)N[C@@H](CC(C)C)C(=O)N[C@@H](CC(C)C)C(=O)N[C@@H](CCC(=O)O)C(=O)N[C@@H](CS)C(=O)N[C@@H](CCC(=O)O)C(=O)N[C@@H](CC(C)C)C(=O)N[C@@H](Cc1c[nH]c2ccccc12)C(=O)N[C@@H](CS)C(=O)N[C@@H](CO)C(=O)N1CCC[C@H]1C(=O)N[C@@H](C)C(=O)N[C@@H](CCC(=O)O)C(=O)N[C@@H](CCC(=O)O)C(N)=O [N‐Myc73‐94‐N85C/G89C (red)] (Ac-EPPSWVTEMLLECELWCSPAEE-NH2) | -4380 | 123 ± 10 | −4383±64^[e] deg cm^−1 dmol^−1 res^−1 | 13±1
CSCC[C@H](NC(=O)[C@H](CCC(=O)O)NC(=O)[C@@H](NC(=O)[C@@H](NC(=O)[C@H](Cc1c[nH]c2ccccc12)NC(=O)[C@H](CO)NC(=O)[C@@H]1CCCN1C(=O)[C@@H]1CCCN1C(=O)[C@H](CCC(=O)O)NC(C)=O)C(C)C)[C@@H](C)O)C(=O)N[C@@H](CC(C)C)C(=O)N[C@@H](CC(C)C)C(=O)N[C@@H](CCC(=O)O)C(=O)N[C@H]1CSSC[C@@H](C(=O)N[C@@H](CO)C(=O)N2CCC[C@H]2C(=O)N[C@@H](C)C(=O)N[C@@H](CCC(=O)O)C(=O)N[C@@H](CCC(=O)O)C(N)=O)NC(=O)[C@H](Cc2c[nH]c3ccccc23)NC(=O)[C@H](CC(C)C)NC(=O)[C@H](CCC(=O)O)NC1=O [N‐Myc73‐94‐N85C/G89C (ox)] (Ac-EPPSWVTEMLLECELWCSPAEE-NH2; disulfide 13-17) | -5260 | 130 ± 9 | −5255±217 deg cm^−1 dmol^−1 res^−1 | 15±1
CSCC[C@H](NC(=O)[C@H](CCC(=O)O)NC(=O)[C@@H](NC(=O)[C@@H](NC(=O)[C@H](Cc1c[nH]c2ccccc12)NC(=O)[C@H](CO)NC(=O)[C@@H]1CCCN1C(=O)[C@@H]1CCCN1C(=O)[C@H](CCC(=O)O)NC(C)=O)C(C)C)[C@@H](C)O)C(=O)N[C@@H](CC(C)C)C(=O)N[C@@H](CC(C)C)C(=O)N[C@@H](CCC(=O)O)C(=O)N[C@@H](CC(N)=O)C(=O)N[C@H]1CSC2=C(SC[C@@H](C(=O)N3CCC[C@H]3C(=O)N[C@@H](C)C(=O)N[C@@H](CCC(=O)O)C(=O)N[C@@H](CCC(=O)O)C(N)=O)NC(=O)CNC(=O)[C@H](Cc3c[nH]c4ccccc34)NC(=O)[C@H](CC(C)C)NC1=O)C(=O)NC2=O [N‐Myc73‐94‐E86C/S90C (mal)] (Ac-EPPSWVTEMLLENCLWGCPAEE-NH2; linker 14-18 via Maleimide(3,4-diyl)) | -5720 | 111 ± 18 |  | 
CSCC[C@H](NC(=O)[C@H](CCC(=O)O)NC(=O)[C@@H](NC(=O)[C@@H](NC(=O)[C@H](Cc1c[nH]c2ccccc12)NC(=O)[C@H](CO)NC(=O)[C@@H]1CCCN1C(=O)[C@@H]1CCCN1C(=O)[C@H](COP(=O)(O)O)NC(C)=O)C(C)C)[C@@H](C)O)C(=O)N[C@@H](CC(C)C)C(=O)N[C@@H](CC(C)C)C(=O)N[C@@H](CCC(=O)O)C(=O)N[C@@H](CC(N)=O)C(=O)N[C@@H](CCC(=O)O)C(=O)N[C@@H](CC(C)C)C(=O)N[C@@H](Cc1c[nH]c2ccccc12)C(=O)NCC(N)=O [N‐Myc73‐89‐E73pS] | -5390 |  | −5394±235 deg cm^−1 dmol^−1 res^−1 | 16±1
CSCC[C@H](NC(=O)[C@H](CCC(=O)O)NC(=O)[C@@H](NC(=O)[C@@H](NC(=O)[C@H](Cc1c[nH]c2ccccc12)NC(=O)[C@H](CO)NC(=O)[C@@H]1CCCN1C(=O)[C@@H]1CCCN1C(=O)[C@H](CCC(=O)O)NC(C)=O)C(C)C)[C@@H](C)O)C(=O)N[C@@H](CC(C)C)C(=O)N[C@@H](CC(C)C)C(=O)N[C@@H](CCC(=O)O)C(=O)N[C@H]1CSC2=C(SC[C@@H](C(=O)N[C@@H](CO)C(=O)N3CCC[C@H]3C(=O)N[C@@H](C)C(=O)N[C@@H](CCC(=O)O)C(=O)N[C@@H](CCC(=O)O)C(N)=O)NC(=O)[C@H](Cc3c[nH]c4ccccc34)NC(=O)[C@H](CC(C)C)NC(=O)[C@H](CCC(=O)O)NC1=O)C(=O)NC2=O [N‐Myc73‐94‐N85C/G89C (mal)] (Ac-EPPSWVTEMLLECELWCSPAEE-NH2; linker 13-17 via Maleimide(3,4-diyl)) | -7220 | 49 ± 5 |  | 
CSCC[C@H](NC(=O)[C@H](CCC(=O)O)NC(=O)[C@@H](NC(=O)[C@@H](NC(=O)[C@H](Cc1c[nH]c2ccccc12)NC(=O)[C@H](CO)NC(=O)[C@@H]1CCCN1C(=O)[C@@H]1CCCN1C(=O)[C@H](CCC(=O)O)NC(C)=O)C(C)C)[C@@H](C)O)C(=O)N[C@@H](CC(C)C)C(=O)N[C@@H](CC(C)C)C(=O)N[C@@H](CCC(=O)O)C(=O)N[C@@H](CC(N)=O)C(=O)N[C@@H](CCC(=O)O)C(=O)N[C@@H](CC(C)C)C(=O)N[C@@H](Cc1c[nH]c2ccccc12)C(=O)NCC(N)=O [N‐Myc73‐89] | -4080 |  | −4079±71 deg cm^−1 dmol^−1 res^−1 | 13±1
CSCC[C@H](NC(=O)[C@H](CCC(=O)O)NC(=O)[C@@H](NC(=O)[C@@H](NC(=O)[C@H](Cc1c[nH]c2ccccc12)NC(=O)[C@H](CO)NC(=O)[C@@H]1CCCN1C(=O)[C@@H]1CCCN1C(=O)[C@H](CCC(=O)O)NC(=O)[C@H](CO)NC(=O)[C@H](CO)NC(=O)[C@H](Cc1c[nH]cn1)NC(=O)[C@H](CCC(=O)O)NC(=O)[C@H](C)NC(=O)[C@H](Cc1ccccc1)NC(=O)CNC(=O)[C@H](CCCNC(=N)N)NC(=O)[C@H](CO)NC(=O)[C@@H]1CCCN1C(=O)[C@H](CO)NC(=O)[C@H](CC(C)C)NC(C)=O)C(C)C)[C@@H](C)O)C(=O)N[C@@H](CC(C)C)C(=O)N[C@H]1CSSC[C@@H](C(=O)N[C@@H](Cc2c[nH]c3ccccc23)C(=O)NCC(N)=O)NC(=O)[C@H](CCC(=O)O)NC(=O)[C@H](CC(N)=O)NC(=O)[C@H](CCC(=O)O)NC1=O [N-Myc 61-89L83C/L87C ox] (Ac-LSPSRGFAEHSSEPPSWVTEMLCENECWG-NH2; disulfide 23-27) |  | 103 ± 11 | -2223 ± 37 deg cm^−1 dmol^−1 res^−1 | 7 ± 1
CSCC[C@@H]1NC(=O)[C@@H](NC(=O)[C@@H](NC(=O)[C@@H](NC(=O)[C@H](Cc2c[nH]c3ccccc23)NC(=O)[C@H](CO)NC(=O)[C@@H]2CCCN2C(=O)[C@@H]2CCCN2C(=O)[C@H](CCC(=O)O)NC(=O)[C@H](CO)NC(=O)[C@H](CO)NC(=O)[C@H](Cc2c[nH]cn2)NC(=O)[C@H](CCC(=O)O)NC(=O)[C@H](C)NC(=O)[C@H](Cc2ccccc2)NC(=O)CNC(=O)[C@H](CCCNC(=N)N)NC(=O)[C@H](CO)NC(=O)[C@@H]2CCCN2C(=O)[C@H](CO)NC(=O)[C@H](CC(C)C)NC(C)=O)C(C)C)[C@@H](C)O)CSSC[C@@H](C(=O)N[C@@H](CC(N)=O)C(=O)N[C@@H](CCC(=O)O)C(=O)N[C@@H](CC(C)C)C(=O)N[C@@H](Cc2c[nH]c3ccccc23)C(=O)NCC(N)=O)NC(=O)[C@H](CC(C)C)NC(=O)[C@H](CC(C)C)NC1=O [N-Myc 61-89 E80C/E84C ox] (Ac-LSPSRGFAEHSSEPPSWVTCMLLCNELWG-NH2; disulfide 20-24) |  | 107 ± 19 | -2656 ± 28 deg cm^−1 dmol^−1 res^−1 | 8 ± 1
